pEC50: −log10 of the molar value. Read-outs that look alike come from different tables or passages of the source.
Legend:
[1] = tested on: P. falciparum 3D7 parasites; experiment: P. falciparum 3D7 asexual stage LDH assay (72 h); type: cell-based, Plasmodium falciparum; settings: for pEC50: Plasmodium falciparum, 3D7, 72 h, means and SDs, three or more experiments; for fold decrease in Pf 3D7 activity relative to 17: ratio of EC50 to compound 17; for fold loss in Pf 3D7 activity relative to W499 (2): carboxamide variants versus cyclopropyl parent
Description: To establish the SAR, synthesized analogs were assessed against the asexual stage parasite (72 h) using LDH as a proxy for parasite growth inhibition. Cytotoxicity was monitored against the human HepG2 cell line using Cell TitreGlo as a metabolic marker for cell growth.
P. falciparum 3D7 Asexual Stage LDH Assay. This is a platform assay is routinely undertaken at the Walter and Eliza Hall Institute and details on the protocol has been previously published. Briefly, 10-point dilution series of the compounds were prepared in 384 well assay plates using an Echo555 (Labcyte). Appropriate volumes of 10 mM compound stocks were transferred into the assay plates such that the starting concentration was 1 μM, with a 1 in 3-fold dilution series. All wells were backfilled with DMSO to 40 nL such that this remained constant (0.1 % DMSO). The positive growth control was 0.1 % DMSO and the negative growth control was 100 nM chloroquine. The parasite inoculum (40 μL) was dispensed into plates containing compounds using a Multidrop Combi dispenser (Thermo Scientific). […] Following 72 h growth, plates were sealed with parafilm and frozen at −80 °C overnight. Plates were thawed at room temperature for at least 4 h prior to LDH activity being measured. […] Plates were shaken to ensure mixing and absorbance at 650 nm was measured in an EnVision (PerkinElmer) plate reader after 30 min of incubation at room temperature. […] The equation used is sigmoidal dose response (variable slope), Y = bottom + (top − bottom)/(1 + 10((logEC50 − X) × Hill Slope)).

[2] = Human HepG2 growth inhibition assay (Cell TitreGlo, 48 h); type: cell-based; settings: human, HepG2 cells, HepG2 cell growth inhibition over 48 h
Description: To establish the SAR, synthesized analogs were assessed against the asexual stage parasite (72 h) using LDH as a proxy for parasite growth inhibition. Cytotoxicity was monitored against the human HepG2 cell line using Cell TitreGlo as a metabolic marker for cell growth. Cyt b inhibitors typically have high lipophilicity, and so calculated physicochemical properties were determined, while in vitro ADME was also collected on representative analogs to gauge their suitability for efficacy studies in a 4-day P. berghei model.
Human HepG2 Growth Inhibition Assay. This is a routine assay undertaken at the Walter and Eliza Hall Institute and the method has been previously published. HepG2 cells were cultured in Dulbeccos modified eagles medium (DMEM) supplemented with 10 % fetal calf serum (FCS), in a humidified incubator at 37 °C and 5 % CO2. Assay plates (Greiner #781098, 384 well, white, tissue culture treated) were prepared by transferring appropriate volumes of 10 mM compound stocks using an Echo555 (Labcyte) such that the starting concentration was 50 μM, with a 1:2-fold dilution series. All wells were backfilled with DMSO to […] such that this remained constant (0.5 % DMSO). The positive growth control was 0.5 % DMSO and the negative growth control was 10 μM Bortezomib. HepG2 cells were seeded with 1000 cells in 50 μL DMEM with 10 % FCS into each well of the assay plates using a Multidrop Combi dispenser (Thermo Scientific). Plates were incubated at 37 °C and 5 % CO2 for 48 h. Cytotoxicity was determined using Cell Titer Glo (Promega) and calculated as a percentage using DMSO as the positive growth control and 10 μM Bortezomib as a negative growth control. EC50 values were calculated by Dotmatics 5.3 and Spotfire 7.11.1 software using a nonlinear regression four-parameter fit analysis. The equation used is sigmoidal dose response (variable slope), Y = bottom + (top − bottom)/(1 + 10((logEC50 − X) × Hill Slope)).

[3] = LDH activity of P. falciparum 3D7 parasites over 72 h, read-out: Pf 3D7 EC50 (SD)
[4] = read-out: Pf 3D7 EC50 (SD), LDH activity of P. falciparum 3D7 parasites over 72 h

Row | SMILES | pEC50 [1, 3] | fold decrease in Pf 3D7 activity relative to 17 [1] | CC50 at 48 h [2] [µM] | fold loss in Pf 3D7 activity relative to W499 (2) [1] | pEC50 [1, 4]
1 | O=C(NC1CC1)c1ccc(CNCc2ccccc2)cc1 [Compound 18, 4-((Benzylamino)methyl)-N-cyclopropylbenzamide] | < 5.00 |  |  |  | 
2 | CN(Cc1ccccc1)Cc1ccc(C(=O)NC2CC2)cc1 [Compound 19, 4-((Benzyl(methyl)amino)methyl)-N-cyclopropylbenzamide] | 5.59 | 20 fold | > 40 |  | 
3 | CCN(Cc1ccccc1)Cc1ccc(C(=O)NC2CC2)cc1 [Compound 20, 4-((Benzyl(ethyl)amino)methyl)-N-cyclopropylbenzamide] | 6.15 | 4 fold | > 40 |  | 
4 | CC(C)(C)N(Cc1ccccc1)Cc1ccc(C(=O)NC2CC2)cc1 [Compound 23, 4-((Benzyl(tert-butyl)amino)methyl)-N-cyclopropylbenzamide] | 6.20 |  | > 40 |  | 
5 | CCC(C)N(Cc1ccccc1)Cc1ccc(C(=O)NC2CC2)cc1 (stereo not drawn) [Compound 24, 4-((Benzyl(sec-butyl)amino)methyl)-N-cyclopropylbenzamide] | 6.68 |  | > 40 |  | 
6 | O=C(NC1CC1)c1ccc(CN(Cc2ccccc2)Cc2ccccc2)cc1 [Compound 27, N-Cyclopropyl-4-((dibenzylamino)methyl)benzamide] |  |  | > 40 |  | 
7 | O=C(NC1CC1)c1cccc(CN(Cc2ccccc2)C2CC2)c1 [Compound 28, 3-((Benzyl(cyclopropyl)amino)methyl)-N-cyclopropylbenzamide] | 5.25 | 40 fold | > 40 |  | 
8 | NC(=O)c1ccc(CN(Cc2ccc(Cl)cc2Cl)C2CC2)cc1 [Compound 29] | < 5.00 |  |  |  | 
9 | CNC(=O)c1ccc(CN(Cc2ccc(Cl)cc2Cl)C2CC2)cc1 [Compound 30] | 5.93 |  | > 40 |  | 
10 | CCNC(=O)c1ccc(CN(Cc2ccc(Cl)cc2Cl)C2CC2)cc1 [Compound 31, 4-((Cyclopropyl(2,4-dichlorobenzyl)amino)methyl)-N-ethylbenzamide] | 6.51 |  | > 40 |  | 
11 | CCCNC(=O)c1ccc(CN(Cc2ccc(Cl)cc2Cl)C2CC2)cc1 [Compound 32, 4-((Cyclopropyl(2,4-dichlorobenzyl)amino)methyl)-N-propylbenzamide] | 6.19 |  | > 40 |  | 
12 | CC(C)NC(=O)c1ccc(CN(Cc2ccc(Cl)cc2Cl)C2CC2)cc1 [Compound 33] | 6.16 |  | > 40 |  | 
13 | O=C(NCC(F)(F)F)c1ccc(CN(Cc2ccc(Cl)cc2Cl)C2CC2)cc1 [Compound 34, 4-((Cyclopropyl(2,4-dichlorobenzyl)amino)methyl)-N-(2,2,2-trifluoroethyl)benzamide] | < 5.00 |  |  |  | 
14 | CN(C)CCNC(=O)c1ccc(CN(Cc2ccc(Cl)cc2Cl)C2CC2)cc1 [Compound 35] | 5.12 |  | 9.3 |  | 
15 | NCCNC(=O)c1ccc(CN(Cc2ccc(Cl)cc2Cl)C2CC2)cc1 [Compound 36, 2-(4-((Cyclopropyl(2,4-dichlorobenzyl)amino)methyl)benzamido)ethan-1-aminium 2,2,2-trifluoroacetate] | < 5.00 |  |  |  | 
16 | O=C(NCCO)c1ccc(CN(Cc2ccc(Cl)cc2Cl)C2CC2)cc1 [Compound 37, 4-((Cyclopropyl(2,4-dichlorobenzyl)amino)methyl)-N-(2-hydroxyethyl)benzamide] | 5.62 |  | > 40 | approximately 25 fold | 
17 | O=C(NC1CCC1)c1ccc(CN(Cc2ccc(Cl)cc2Cl)C2CC2)cc1 [Compound 38] | 6.32 |  | > 40 | 4 fold | 
18 | O=C(NC1CCCC1)c1ccc(CN(Cc2ccc(Cl)cc2Cl)C2CC2)cc1 [Compound 39] |  |  | > 40 | 12 fold | 5.92
19 | O=C(Nc1ccccc1)c1ccc(CN(Cc2ccc(Cl)cc2Cl)C2CC2)cc1 [Compound 40] |  |  | > 40 |  | 
20 | O=C(NC1CC1)c1ccc(CN(Cc2ccccc2F)C2CC2)cc1 [Compound 42] | 6.60 |  | > 40 |  | 

Row | SMILES | pEC50 [1, 3] | fold decrease in Pf 3D7 activity relative to 17 [1] | CC50 at 48 h [2] [µM] | fold loss in Pf 3D7 activity relative to W499 (2) [1] | pEC50 [1, 4]
21 | O=C(NC1CC1)c1ccc(CN(Cc2cccc(F)c2)C2CC2)cc1 [Compound 43] | 6.62 |  | > 40 |  | 
22 | O=C(NC1CC1)c1ccc(CN(Cc2ccc(F)cc2)C2CC2)cc1 [Compound 44] | 6.66 |  | > 40 |  | 
23 | O=C(NC1CC1)c1ccc(CN(Cc2ccccc2Cl)C2CC2)cc1 [Compound 45, 4-(((2-Chlorobenzyl) (cyclopropyl)amino)methyl)-N-cyclopropylbenzamide] | 6.54 |  | > 40 |  | 
24 | O=C(NC1CC1)c1ccc(CN(Cc2cccc(Cl)c2)C2CC2)cc1 [Compound 46, 4-(((3-Chlorobenzyl) (cyclopropyl)amino)methyl)-N-cyclopropylbenzamide] | 6.47 |  | > 40 |  | 
25 | O=C(NC1CC1)c1ccc(CN(Cc2ccc(Cl)cc2)C2CC2)cc1 [Compound 47, 4-(((4-Chlorobenzyl) (cyclopropyl)amino)methyl)-N-cyclopropylbenzamide] | 6.68 |  | > 40 |  | 
26 | Cc1ccccc1CN(Cc1ccc(C(=O)NC2CC2)cc1)C1CC1 [Compound 48] | 6.70 |  | > 40 |  | 
27 | O=C(NC1CC1)c1ccc(CN(Cc2ccccc2C(F)(F)F)C2CC2)cc1 [Compound 49] | 6.66 |  | > 40 |  | 
28 | Cc1cccc(CN(Cc2ccc(C(=O)NC3CC3)cc2)C2CC2)c1 [Compound 50] | 6.77 |  | > 40 |  | 
29 | Cc1ccc(CN(Cc2ccc(C(=O)NC3CC3)cc2)C2CC2)cc1 [Compound 51] | 6.82 |  | > 40 |  | 
30 | O=C(NC1CC1)c1ccc(CN(Cc2cccc(C(F)(F)F)c2)C2CC2)cc1 [Compound 52] | 6.80 |  | > 40 |  | 
31 | O=C(NC1CC1)c1ccc(CN(Cc2ccc(C(F)(F)F)cc2)C2CC2)cc1 [Compound 53] | 6.96 |  | > 40 |  | 
32 | CC(=O)Nc1cccc(CN(Cc2ccc(C(=O)NC3CC3)cc2)C2CC2)c1 [Compound 66, 4-(((3-Acetamidobenzyl) (cyclopropyl)amino)methyl)-N-cyclopropylbenzamide] | < 5.00 |  |  |  | 
33 | CC(=O)Nc1ccc(CN(Cc2ccc(C(=O)NC3CC3)cc2)C2CC2)cc1 [Compound 67, 4-(((4-Acetamidobenzyl) (cyclopropyl)amino)methyl)-N-cyclopropylbenzamide] | < 5.00 |  |  |  | 
34 | O=C(NC1CC1)c1ccc(CN(Cc2cccnc2)C2CC2)cc1 [Compound 86] | < 5.00 |  |  |  | 
35 | O=C(NC1CC1)c1ccc(CNC2CC2)cc1 [Compound 88, N-cyclopropyl-4-((cyclopropylamino)methyl)benzamide] | < 5.00 |  |  |  | 
36 | CN(Cc1ccc(C(=O)NC2CC2)cc1)C1CC1 [Compound 89] | < 5.00 |  |  |  | 
37 | CC(C)CN(Cc1ccc(C(=O)NC2CC2)cc1)C1CC1 [Compound 92] |  | approximately 4 fold |  |  | 6.27
38 | O=C(NC1CC1)c1ccc(CN(C(=O)c2ccccc2)C2CC2)cc1 [Compound 99, N-Cyclopropyl-N-(4-(cyclopropylcarbamoyl)benzyl)benzamide] | < 5.00 |  |  |  | 
39 | O=C(NC1CC1)c1ccc(C(=O)N(Cc2ccccc2)C2CC2)cc1 [Compound 100, N [4]-Benzyl-N^1,N [4]-dicyclopropyl-terephthalamide] | < 5.00 |  |  |  | 
40 | O=C(NC1CC1)c1ncc(CN(Cc2ccccc2)C2CC2)s1 [Compound 106, 5-((Benzyl(cyclopropyl)amino)methyl)-N-cyclopropylthiazole-2-carboxamide] | < 5.00 |  |  |  | 
